According to patent US20210308196A1, “COMPOSITIONS AND METHODS TO PROMOTE HOST DEFENSE AND STIMULATE, EXPAND, AND/OR RESET T CELL REPERTOIRES” (EVOLVE BIOSYSTEMS, INC., priority 2018, published 2021):

What was measured:
Format in all cases: in vivo, human
[1] = system: vaccine specific antibodies; assay: Vaccine-specific antibodies in infant stool
Excerpt: Infants from Example 1 received vaccines per the standard schedule. Standard schedule is expected to look like this, as per the CDC (other nations have slightly different schedules; however, the repeated doses over the first year of life is common).
Stool samples were collected at 10 and 12 months for vaccine quantification to coincide with an appropriate post-vaccine time point, and to allow the expansion of vaccine-specific antibodies concentrations to plateau after primary, secondary or tertiary doses [Wright et al. (2014) Journal of Infectious Diseases:209 pg 1628-1634; Brown et al. (2012) J Immunol Methods: 386(1-2): 117-12].
Evaluation of stool for antigen specific responses in infants colonized with B. infantis EVC001. Biophysical antibody profiling assays are performed to assess the Fv and Fc characteristics of vaccine-elicited antibodies raised in infants with and without B. infantis colonization. Presence and phenotype of antibodies in test samples are assessed by staining of bead-bound antibodies with PE-conjugated detection reagents (Anti-IgG, Anti-IgA, and potentially Anti-IgE) and detection via flow cytometry. For the assay, 100 μL each of prepared stool samples from 34 subjects (2 timepoints, up to 62 samples total) that received either received EVC001 or are part of the control group.

[2] = Microbial short chain fatty acids by gas chromatography; conditions: treatment group
Excerpt: Microbial production of short chain fatty acids (SCFA): SCFA can modulate intestinal inflammation by regulating epithelial barrier function. Microbial short chain fatty acids (SCFA) are extracted by methods previously described and analyzed by gas chromatography HD and found to be elevated in the treatment group

[3] = system: TLR2, TLR4, TNF and COX-2; assay: qPCR of inflammatory markers in sloughed off intestinal epithelial cells; conditions: treatment group
Excerpt: Expression of inflammatory markers including Toll like receptor (TLR) 2 and TLR4, COX-2 and TNF in intestinal epithelial cells: Previous data has implemented TLR2 in controlling mucosal inflammation by regulating intestinal epithelial barrier function. Further, a significant TLR4-dependent increase in Cox-2 expression has been shown in intestinal epithelial cells post exposure to lipopolysaccharide. TNF-α, a cytokine that plays a key role in mucosal inflammation, is readily detectable at the expression and protein levels in children who have various intestinal pathologies.

[4] = Prevention and/or treatment of severe acute malnutrition (SAM) in infants; conditions: 28 days
[5] = Immune development in C-section infants; conditions: baseline to three months
Excerpt: Approximately 25 mother-infant dyads are recruited to provide a cord blood sample and two infant blood samples, one on day 0-4 and another at 3 months old (between 84 and 104). Markers of immune function will be analysed and compared to the development of the gut microbiome.
The study design is described in FIG. 16. The change in levels of immune cells and markers from baseline (Day 0-Day 4) to three months (Day 84-Day 104) will be measured. The correlation between gut microbiota composition and abundance and levels of immune cells and markers may also be measured. The differences between B. infantis and placebo supplementation on levels of immune cells and markers in breast-fed infants.
The differences between B. infantis and placebo supplementation on vaccine response (antibody titers). Blood samples are collected at baseline and month-three postpartum for evaluation of peripheral blood mononuclear cell characterization (including regulatory T cells) and vaccine response.

Question: With “Bifidobacterium longum subsp. infantis EVC001 [B. infantis EVC001]” as the substance, how does the Vaccine response ([1]; infants persistently colonized for at least the first 100 days of life vs infants without colonization) read?
Answer: stronger vaccine response

Question: And the “Vaccine specific antibodies in stool” value ([1]; stool collected at 10 and 12 months, treatment group)?
Answer: significant elevation

Question: And the “Microbial short chain fatty acids (SCFA)” value [2]?
Answer: elevated

Question: What about the “Expression of TLR2, TLR4, TNF and COX-2” value [3] of the same substance?
Answer: significantly reduced

Question: What about the “Incidence of symptoms of acute malnutrition” value [4] of the same substance?
Answer: lower

Question: What about the TReg cells [4] of the same substance?
Answer: expansion

Question: And the Weight gain [4]?
Answer: better

Question: And the “B cell and plasma cell profiles, vaccine responses” value ([4]; children with SAM / hospitalized infants)?
Answer: improved

Question: What about the Inflammation [5] of the same substance?
Answer: reduced

Question: What about the “Th17 and IL-17 level” value [5] of the same substance?
Answer: decreased

Question: And the Tregs [5]?
Answer: increased
